Results from ChEMBL document CHEMBL1201862, “PubChem BioAssay data set” (2004).
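Step 1: Grow cells in 96-well plates. Step 2: Expose to compound for 48 hours at 5 concentrations. Step 3: Interpolate endpoints linearly; if unreached, use highest concentration. Here, GI50 denotes the concentration required for 50% inhibition of growth.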 Activity calls are given as the source filed them. No stated cut-off is given here; in the data, active = GI50 up to about 1.1 µM and inactive = higher.

Experiments:
Test in all cases: inhibition of tumour cell growth, NCI panel, 48 h
[1] = tested on: NCI/ADR-RES
[2] = tested on: SF-539
[3] = tested on: K562
[4] = tested on: RPMI-8226
[5] = tested on: LOX IMVI
[6] = tested on: CCRF-CEM
[7] = tested on: Malme-3M
[8] = tested on: ACHN
[9] = tested on: UO-31
[10] = tested on: MCF7
[11] = tested on: COLO 205
[12] = tested on: 786-0
[13] = tested on: Hs-578T
[14] = tested on: NCI-H460
[15] = tested on: SN12C
[16] = tested on: NCI-H522
[17] = tested on: SK-OV-3
[18] = tested on: HCT-116
[19] = tested on: PC-3
[20] = tested on: DU-145

Measured: GI50

Cn1c(=O)c2c(-c3ccccc3)onc2n(C)c1=O
inactive: [1] 27.5 µM | [2] 37.9 µM | [3] 30.3 µM | [4] 15 µM | [5] 21.2 µM | [6] 22.4 µM | [7] 46.8 µM | [8] 31.9 µM | [9] 19.5 µM | [10] 12.9 µM | [11] 43.2 µM | [12] 29 µM | [13] 24.5 µM | [14] 35.9 µM | [15] 30.4 µM | [16] 27.9 µM | [17] > 100 µM | [18] 27.4 µM | [19] 15 µM

Brc1ccc(C2C3CSc4ccccc4C3=NN2c2ccccc2)cc1 (centres undefined)
inactive: [20] > 100 µM | [1] 77.6 µM | [2] 59 µM | [3] 77.4 µM | [4] 27.3 µM | [5] 77.8 µM | [6] 34.8 µM | [7] > 100 µM | [9] 94.8 µM | [10] 14.5 µM | [11] 97.1 µM | [12] > 100 µM | [13] > 100 µM | [14] 32.8 µM | [15] > 100 µM | [17] 82.8 µM | [18] > 100 µM | [19] 43.8 µM

CC1(C)OC(=S)N(c2ccccc2)C12C=Cc1cc3ccccc3cc1O2 (centres undefined)
inactive: [20] > 100 µM | [1] > 100 µM | [3] 41.3 µM | [4] 92 µM | [5] > 100 µM | [6] > 100 µM | [8] > 100 µM | [9] > 100 µM | [10] > 100 µM | [11] > 100 µM | [12] > 100 µM | [13] > 100 µM | [14] > 100 µM | [15] > 100 µM | [17] > 100 µM | [18] > 100 µM | [19] 44.2 µM

CC1(C)OC(=O)N(c2ccccc2)C12C=Cc1cc([N+](=O)[O-])cc([N+](=O)[O-])c1O2 (centres undefined)
inactive: [20] > 100 µM | [1] > 100 µM | [3] 89.3 µM | [4] > 100 µM | [5] > 100 µM | [6] > 100 µM | [8] > 100 µM | [9] 34.2 µM | [10] > 100 µM | [11] > 100 µM | [12] > 100 µM | [13] 59.8 µM | [14] > 100 µM | [15] > 100 µM | [16] 25.2 µM | [17] > 100 µM | [18] > 100 µM | [19] 91.2 µM

CC(=O)O[C@H]1/C(=C/c2ccc(N(C)C)cc2)C[C@H]2[C@@H]3CC=C4C[C@@H](N5CCCC5)CC[C@]4(C)[C@H]3CC[C@]12C
inactive: [20] > 100 µM | [1] > 100 µM | [2] > 100 µM | [3] > 100 µM | [4] > 100 µM | [5] 35.6 µM | [7] > 100 µM | [8] > 100 µM | [9] > 100 µM | [10] > 100 µM | [11] > 100 µM | [12] > 100 µM | [13] > 100 µM | [14] 61.9 µM | [15] > 100 µM | [17] > 100 µM | [18] > 100 µM | [19] > 100 µM

COC(=O)C1(Cc2ccccc2)Cc2ccccc2C1
inactive: [20] 30.8 µM | [1] 21.9 µM | [2] 50.9 µM | [3] 15.8 µM | [4] 20.4 µM | [5] 20.5 µM | [6] 15.5 µM | [7] 15.5 µM | [8] 18.7 µM | [9] 7.73 µM | [10] 25.1 µM | [11] 19.1 µM | [12] 22.7 µM | [13] 27.5 µM | [14] 25.5 µM | [15] 25.4 µM | [17] 39.6 µM | [18] 17.3 µM | [19] 29.7 µM
